{
  "source": "patent EP2985276A1",
  "about": "“FORMULATIONS BASED ON NANOEMULSIONS AND THE USE THEREOF FOR TREATING OBESITY” (Fundación Pública Andaluza Para La Investigación de Malaga …, priority 2013, dated 2014)",
  "test_system": "24 h food-deprived Wistar rats",
  "assay": "Acute feeding study: cumulative food intake after i.p. or oral administration",
  "assay_type": "in vivo",
  "procedure": "The experiments were performed on male Wistar rats weighing 300-350 g. The animals were housed individually under a 12 h light/dark cycle in a room with temperature and humidity control. The rats had ad libitum access to food and water, except during the feeding studies. Prior to the experiments, animals were acclimated to the handling.\nFor the acute feeding studies, the nanoemulsion G-F68 or Tween 20 were prepared in 5% in saline.\nRegarding the acute studies with OEA, the drug was obtained from Tocris Bioscience (Bristol, UK). It was administered in a solution contained the nanoemulsion G-F68 (5%) and saline (95%) prepared in fresh the same day of the experiment. The doses tested were: • a) 1, 5 and 10 mg/kg of OEA for the intraperitoneal acute studies. The volume of the administration was 1 ml/kg. • b) 1, 10 and 50 mg/kg of OEA for the oral acute studies. The volume of the administration was 3 ml/kg.\nThe hypophagic actions of the N-acylethanolamine OEA were evaluated using the nanoemulsion G-F68 as delivery system (vehicle). For these experiments, we used animals habituated to the experimental protocols. To this end, 48 h before each experiment, the bedding was removed and replaced by small food containers into the cage for 4 h. After this initial phase, the animals were deprived of food for 24 h, but had free access to water. The different treatments were administered 15 min prior access to food. Animals were then returned to their home cages and a measured amount of food (30-40 g) was placed into the cages (t = 0 h). Food pellets were weighed at time intervals of 15, 30, 60, 120 and 240 min, and 24 h after the acute treatment.",
  "data": [
    {"smiles": "CCCCCCCC/C=C\\CCCCCCCC(=O)NCCO", "note": "[OEA, N-oleoylethanolamine]", "values": [
      {"measurement": "food intake", "setting": "OEA 1 mg/kg oral (i.g., 3 ml/kg) in G-F68, vs G-F68 group, p<0.01 at 240 min", "result": "significant decrease in food intake"},
      {"measurement": "food intake", "setting": "OEA 5 mg/kg i.p. in G-F68 (5% in saline), vs nanoemulsion group, p<0.001 at 15 min, p<0.05 at 30 min", "result": "significant reduction on food intake"},
      {"measurement": "food intake", "setting": "OEA 10 mg/kg i.p. in G-F68 (5% in saline), vs nanoemulsion group, p<0.001 at 15, 30 and 60 min", "result": "significant reduction on food intake"},
      {"measurement": "food intake", "setting": "OEA 10 mg/kg oral (i.g., 3 ml/kg) in G-F68, vs G-F68 group, p<0.05 at 240 min", "result": "significant decrease in food intake"},
      {"measurement": "food intake", "setting": "OEA 50 mg/kg oral (i.g., 3 ml/kg) in G-F68, vs G-F68 group, significant at 15, 30, 60, 120, 240 min and 24 h", "result": "significant decrease in food intake"},
      {"measurement": "food intake", "setting": "OEA 50 mg/kg oral (i.g., 3 ml/kg) prepared in Tween 20, vs vehicle Tween 20 group, p<0.05", "result": "significant decrease in food intake only at 30 and 60 min"},
      {"measurement": "feeding", "setting": "OEA 50 mg/kg oral (i.g., 3 ml/kg) within nanoemulsion G-F68, vs its vehicle group (Figure 7), 15 min to 24 h", "result": "prolonged and significant reduction of feeding at all times"},
      {"measurement": "cumulative food intake", "setting": "OEA i.p., the different doses (1, 5, 10 mg/kg) in G-F68, 24 h after administration, vs vehicle group", "result": "no effects on cumulative food intake"}
    ]}
  ]
}
